Experimental data as given in publication PMC4423475, “Structure-based discovery of the first non-covalent inhibitors of Leishmania major tryparedoxin peroxidase by high throughput docking” (Scientific Reports, 2015).

Experiments:
LmTXNPx [1] = molecular target: T1, LmTXNPx (Leishmania major, UniProt Q4QF76); experiment: HRP-H2O2 competition assay (LmTXNPx inhibition assay); assay type: biochemical
Excerpt: To determine the ability of the selected compounds to inhibit the catalytic activity of LmTXNPx, we used the horseradish peroxidase (HRP)-H2O2 competition assay developed by Augusto and co-workers[16]. HRP is well known to react with H2O2 in a two-electron oxidation process that leads to the formation of HRP compound I (HRP-I), a stable HRP oxidized intermediate that can be followed at 398 nm. Reduced LmTXNPx competes with HRP for the H2O2 substrate, leading to a decrease in HRP-I yield that is proportional to LmTXNPx concentration. The addition of LmTXNPx inhibitors leads to a decrease in free LmTXNPx concentration and consequent increase in the HRP-I yield.
Competition kinetics have been performed for determining the activity of the compounds selected by HTD. The ability of the compounds to inhibit the H2O2 reduction by LmTXNPx has been determined by competition approach utilizing the well-known reactivity of H2O2 with horseradish peroxidase (HRP)[16][20][26]. HRP is a heme-containing peroxidase, which uses hydrogen peroxide (by reducing it to water) to oxidize different organic substrates to free radicals. The reaction takes place in three steps: • PFe(III) + H2O2 → P^·+Fe(IV) = O + H2O • P^·+Fe(IV) = O + X → X^• + PFe(IV) = O • PFe(IV) = O + X + 2H^+ → PFe(III) + X^· + H2O
Where PFe(III) is HRP (the native protein), P^·+Fe(IV) = O is the HRP compound I (HRP-I), PFe(IV) = O is the HRP compound II (HRP-II) and X is a generic substrate. The formation of HPR-I results in a change in light absorption in the visible range (Δε403 nm = 5.4 × 10^4 M^−1cm^−1). For kinetic studies the HRP oxidation is monitored at 398 nm (Δε398 nm = 4.2 × 10^4 M^−1cm^−1) instead of 403 nm (wavelength corresponding to the maximum of HRP absorbance) in order to avoid interferences arising from HRP-I reduction to HRP-II. This method is usually used to determine the second order rate constant of 2Cys- Peroxiredoxin reaction with hydrogen peroxide and peroxinitrite.
Thus, H2O2-mediated HRP oxidation is a two-electron oxidation process, leading to the formation of HRP-I, followed at 398 nm. The addition of increasing concentrations of pre-reduced LmTXNPx led to a lower yield in HRP-I since two reactions take place in solution: [drawing 1] [drawing 2]
Where I indicates the inhibitor and LmTXNPx-I indicates the complex between LmTXNPx and the inhibitor. The addition of active LmTXNPx inhibitors led to a decrease in the free LmTXNPx and the consequent recover in the HRP-I yield and therefore to a partial or total recover of the ΔA.
The HRP-based indirect kinetic assays to test the inhibitors was performed in the following way: HRP 2 μM was exposed to H2O2 0.25 μM in sodium phosphate buffer pH 7.4 and 25°C, either in the absence or in the presence of the indicated concentrations of reduced LmTXNPx and in the absence or in the presence of inhibitors. The relative changes in absorbance at 398 nm (ΔA/ΔA0), reflecting HRP-I formation, were determined.
(§1) The compounds ability to inhibit TXNPx has been evaluated by simply measuring the following ratio: ΔA/ΔA0 where ΔA0 is the difference in absorbance between HRP and compound I (ΔA0 = 0.04) and ΔA is the difference in absorbance between HRP and compound I in the presence of LmTXNPx and 100 μM inhibitors. All the compounds have been previously tested for their ability to inhibit HRP at a concentration of 100 μM.

LmTXNPx [2] = molecular target: T1, LmTXNPx; experiment: Surface plasmon resonance, immobilized LmTXNPx; assay type: binding; details: SPR, 1:1 steady-state affinity model
Method: SPR experiments were carried out using a SensiQ Pioneer system (SensiQ, ICxNomadics Inc.). The interaction of the immobilized protein with the analytes was detected by mass concentration-dependent changes of the refractive index on the sensor chip surface. The changes in the observed SPR signal are expressed as Resonance Units (RU). Typically, a response change of 1000 RU corresponds to a change in the surface concentration on the sensor chip of about 1 ng of protein per mm^2.
The sensor chips (COOH5 SensiQ) were chemically activated by injection of 250 μl of a 1:1 mixture of N-hydroxysuccinimide (50 mM) and N-ethyl-N-(3-dimethylaminopropyl)carbodiimide (200 mM) at a flow rate of 25 μl/min. Recombinant LmTXNPx was immobilized on the activated sensor chip via amine coupling. The reaction was carried out at a rate of […] in 20 mM sodium acetate at pH 4.5; the remaining ester groups were blocked by injecting 100 μL of 1 M ethanolamine hydrochloride. Recombinant LmTXNPx was captured to approximately 2000 RU. The analytes were dissolved at a concentration of 10 mM or 20 mM in dimethylsulfoxide (DMSO), and diluted 1:100 in HEPES-buffered saline (HBS: 10 mM HEPES, pH 7.4; 150 mM NaCl; 0.005% surfactant P20).
FastStep injections of samples (100 or 200 μM analytes in HBS + 1% DMSO), and reference buffer (HBS + 1% DMSO) were performed: either the inhibitor and reference buffer were automatically diluted in HBS and injected by 7 serial doubling steps (step contact time = 15 s, nominal flow rate = 200 μl/min). The following analytes were injected: 0–17 s: analyte concentration = 3.12 μM; 17–33 s: 6.25 μM; 33–48 s: 12.5 μM; 48–62 s: 25 μM; 63–78 s: 50 μM; 78–93 s: 100 μM; 94–100 s: 200 μM; for each injection, a maximal RU value was obtained. In control experiments, the sensor chip was treated as described above in the absence of immobilized protein.
Each sensorgram is the average of three different experiments. Sensorgrams were subjected to global analysis using QDat software 2.2.0.23, and for each analyte concentration a % Response was calculated, allowing a local Rmax fit (according to the molecular weight of each compound) and displaying as a response relative to the Rmax. % Response vs. analyte concentration was plotted and a KD value was calculated for each analyte by fitting a simple 1:1 steady-state affinity model to the data.

[3] = molecular target: T2, horseradish peroxidase (HRP) (Armoracia rusticana, UniProt P00433); experiment: HRP inhibition control (compounds tested for their ability to inhibit HRP); assay type: biochemical; details: compound at 100 μM; for HRP inhibition: first series (HTD hits)
T2 sequence (P00433 31-353): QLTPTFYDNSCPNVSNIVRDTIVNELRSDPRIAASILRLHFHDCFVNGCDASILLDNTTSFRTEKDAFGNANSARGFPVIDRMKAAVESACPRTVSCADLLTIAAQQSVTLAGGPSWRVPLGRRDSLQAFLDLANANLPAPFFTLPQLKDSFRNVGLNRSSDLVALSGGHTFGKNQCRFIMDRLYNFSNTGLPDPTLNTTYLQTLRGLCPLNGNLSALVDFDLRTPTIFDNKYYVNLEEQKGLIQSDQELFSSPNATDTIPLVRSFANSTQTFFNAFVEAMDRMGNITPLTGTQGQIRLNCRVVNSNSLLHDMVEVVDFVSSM
Method: as §1

[4] = first series (HTD hits), HRP 2 µM, H2O2 0.25 µM, 2.5 µM LmTXNPx, 100 µM inhibitors, pH 7.4, 25 °C
[5] = residual activity of HRP, HRP 2 μM, H2O2 0.25 μM, 2.5 μM LmTXNPx, 100 μM inhibitors, sodium phosphate buffer pH 7.4, 25°C

T1 sequence (Q4QF76 entry or part of it): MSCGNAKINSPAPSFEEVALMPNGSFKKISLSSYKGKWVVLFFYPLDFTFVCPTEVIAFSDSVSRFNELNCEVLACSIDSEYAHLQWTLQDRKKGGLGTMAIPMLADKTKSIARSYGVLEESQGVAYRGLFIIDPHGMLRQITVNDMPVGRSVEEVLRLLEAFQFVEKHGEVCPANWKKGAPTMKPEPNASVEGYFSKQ

(ΔA/ΔA0) × 100 (LmTXNPx [1]; [4]) [%] | (ΔA/ΔA0) × 100 (LmTXNPx [1]; [5]) [%] | Kd (LmTXNPx [2]) [µM] | HRP inhib. [3] | HRP inhibition [3] | SMILES
47 ± 6 | 52 ± 10 | 290 ± 13 | No | No | COc1cc2cc(CN(Cc3ccc(F)cc3)Cc3nnnn3Cc3ccccc3)c(=O)[nH]c2cc1OC [Compound 1, 3-((((1-Benzyl-1H-tetrazol-5-yl)methyl)(4-fluorobenzyl)amino)methyl)-6,7-dimethoxyquinolin-2(1H)-one]
– | 44 ± 6 | 354 ± 12 | No | – | COc1cc2cc(CN(Cc3ccc(F)cc3)Cc3nnnn3Cc3cccc(N)c3)c(=O)[nH]c2cc1OC [Compound 3, 3-((((1-(3-Aminobenzyl)-1H-tetrazol-5-yl)methyl)(4-fluorobenzyl)amino)methyl)-6,7-dimethoxyquinolin-2(1H)-one]
– | 71 ± 6 | 281 ± 11 | No | – | COc1cc2cc(CN(Cc3ccc(F)cc3)Cc3nnnn3Cc3cccc(I)c3)c(=O)[nH]c2cc1OC [Compound 5, 3-(((4-Fluorobenzyl)((1-(3-iodobenzyl)-1H-tetrazol-5-yl)methyl)amino)methyl)-6,7-dimethoxyquinolin-2(1H)-one]
– | 75 ± 9 | 52 ± 1 | No | – | COc1cc2cc(CN(Cc3ccc(F)cc3)Cc3nnnn3Cc3cccc(-c4ccccc4)c3)c(=O)[nH]c2cc1OC [Compound 6, 3-((((1-([1,1′-Biphenyl]-3-ylmethyl)-1H-tetrazol-5-yl)methyl)(4-fluorobenzyl)amino)methyl)-6,7-dimethoxyquinolin-2(1H)-one]
– | – | 74 ± 3 | Yes | – | COc1cc2cc(CN(Cc3ccccc3)Cc3nnnn3Cc3ccccc3)c(=O)[nH]c2cc1OC [Compound 9, 3-((((1-Benzyl-1H-tetrazol-5-yl)methyl)benzylamino)methyl)-6,7-dimethoxyquinolin-2(1H)-one]
– | – | 63 ± 3 | Yes | – | COc1cc2cc(CN(Cc3ccc(Cl)cc3)Cc3nnnn3Cc3ccccc3)c(=O)[nH]c2cc1OC [Compound 10, 3-((((1-Benzyl-1H-tetrazol-5-yl)methyl)(4-chlorobenzyl)amino)methyl)-6,7-dimethoxyquinolin-2(1H)-one]
– | 37 ± 20 | 112 ± 4 | No | – | COc1cc2cc(CN(Cc3ccc(Br)cc3)Cc3nnnn3Cc3ccccc3)c(=O)[nH]c2cc1OC [Compound 11, 3-((((1-Benzyl-1H-tetrazol-5-yl)methyl)(4-bromobenzyl)amino)methyl)-6,7-dimethoxyquinolin-2(1H)-one]

The remaining lines, values behind:

SMILES | (ΔA/ΔA0) × 100 (LmTXNPx [1]; [4]) [%] | (ΔA/ΔA0) × 100 (LmTXNPx [1]; [5]) [%] | Kd (LmTXNPx [2]) [µM] | HRP inhib. [3] | HRP inhibition [3]
COc1cc2cc(CN(Cc3ccc(F)cc3)Cc3nnnn3Cc3cccc([N+](=O)[O-])c3)c(=O)[nH]c2cc1OC [Compound 2, 3-(((4-Fluorobenzyl)((1-(3-nitrobenzyl)-1H-tetrazol-5-yl)methyl)amino)methyl)-6,7-dimethoxyquinolin-2(1H)-one] | – | 37 ± 9 | 172 ± 6 | No | –
COc1cc2cc(CN(Cc3ccc(F)cc3)Cc3nnnn3Cc3cccc(N(C)C)c3)c(=O)[nH]c2cc1OC [Compound 4, 3-((((1-(3-(Dimethylamino)benzyl)-1H-tetrazol-5-yl)methyl)(4-fluorobenzyl)amino)methyl)-6,7-dimethoxyquinolin-2(1H)-one] | – | – | 156 ± 5 | – | –
COc1ccc2[nH]c(=O)c(CN(Cc3ccc(F)cc3)Cc3nnnn3Cc3ccccc3)cc2c1 [Compound 7, 3-((((1-Benzyl-1H-tetrazol-5-yl)methyl)(4-fluorobenzyl)amino)methyl)-6-methoxyquinolin-2(1H)-one] | – | 60 ± 7 | 47 ± 1 | No | –
O=c1[nH]c2ccccc2cc1CN(Cc1ccc(F)cc1)Cc1nnnn1Cc1ccccc1 [Compound 8, 3-((((1-Benzyl-1H-tetrazol-5-yl)methyl)(4-fluorobenzyl)amino)methyl)quinolin-2(1H)-one] | – | 45 ± 15 | 104 ± 4 | No | –
COc1cc2cc(CN(Cc3nnnn3Cc3ccccc3)CC34CC5CC(CC(C5)C3)C4)c(=O)[nH]c2cc1OC [Compound 12, 3-((((1-Benzyl-1H-tetrazol-5-yl)methyl)(1-adamantylmethyl)amino)methyl)-6,7-dimethoxyquinolin-2(1H)-one] | – | 93 ± 6 | 39 ± 1 | No | –
O=C(Nc1cc(C(=O)Nc2ccc(S(=O)(=O)[O-])c3cc(S(=O)(=O)[O-])cc(S(=O)(=O)[O-])c23)cc(C(=O)Nc2ccc(S(=O)(=O)[O-])c3cc(S(=O)(=O)[O-])cc(S(=O)(=O)[O-])c23)c1)Nc1cc(C(=O)Nc2ccc(S(=O)(=O)[O-])c3cc(S(=O)(=O)[O-])cc(S(=O)(=O)[O-])c23)cc(C(=O)Nc2ccc(S(=O)(=O)[O-])c3cc(S(=O)(=O)[O-])cc(S(=O)(=O)[O-])c23)c1.[Na+].[Na+].[Na+].[Na+].[Na+].[Na+].[Na+].[Na+].[Na+].[Na+].[Na+].[Na+] [NF864] | 16 ± 6 | – | – | – | No
CCOC(=O)Cc1csc(NC(=O)CSc2nc(C(C)C)nc3sc(C)c(C)c23)n1 [NF2013] | – | – | – | – | Yes
